Assay results: US20190015385A1, “VITAMIN E PHOSPHATE OR ACETATE FOR USE IN THE TREATMENT AND PREVENTION OF BIOFILM INFECTIONS” (priority 2016, published 2019)

Experiments:
Candida albicans = experiment: Anti-biofilm activity, crystal violet spectrophotometric assay (Example 1); format: cell-based; conditions: C. albicans
Description: The bacterial biofilm was formed in a sterile 96-well polystyrene plate. In short, a microbial suspension was prepared at an optical density of 0.5 McFarland for each strain. 20 μl of microbial suspension were added to each well containing 180 μl of VitE at various concentrations. Positive controls were performed by inoculating the bacteria in BHI+HA. Following incubation for 24 h at 37° C., the broth was removed, together with non-adherent microorganisms, and 200 μl of broth were added once again. The plates were incubated at 37° C. for another 48 h, until a mature biofilm was obtained.
The amount of biofilm was determined by means of a spectrophotometric assay, adopting the method developed by Christensen et al. (1985). At the end of the incubation period, the culture medium was removed and the wells covered by the biofilm were washed twice with a sterile saline solution and then dried. The biofilm was stained with 200 μl of a 5% crystal violet solution for 10 minutes. After staining, the wells were washed with a sterile saline solution to remove excess stain and left to dry completely. Lastly, 200 μl of 96% ethanol were added to each well to re-solubilize the stain included in the biofilm. Absorbance of the crystal violet was measured at 595 nm using a microplate reader. The assay was conducted in triplicate for each bacterial strain and repeated twice.

S. aureus [1] = experiment: MIC and MBC, broth microdilution (Example 3); format: cell-based, Staphylococcus aureus; conditions: S. aureus strains
Source text: (§1) This study used clinically relevant strains isolated from patients with prosthetic joint infections at the Microbiology Laboratory of the IRCCS Galeazzi Orthopaedic institute (Italy). In particular, the following were selected: strains of methicillin-resistant Staphylococcus epidermidis, of methicillin-resistant Staphylococcus aureus and of Pseudomonas aeruginosa. These strains were identified beforehand by means of biochemical assays (VITEK® 2 Compact, bioMérieux, Marcy l'Etoile, France) and stored at −80° C. prior to the analysis. Before beginning the study, all strains were screened to assess their ability to produce biofilms, according to the spectrophotometric assay described by Christensen et al. (J Clin Microbiol 1985; 22: 996-1006).
(§2) The bacteriostatic and bactericidal activity of vitamin E acetate and vitamin E phosphate against the above-mentioned bacterial strains was assessed by measuring the minimum inhibitory concentration (MIC) and the minimum bactericidal concentration (MBC). MIC, defined as the lowest concentration capable of inhibiting bacterial growth, was determined using the broth microdilution method according to EUCAST guidelines (http://www.eucast.org/clinical_breakpoints/).
(§3) In short, a suspension in Brain Heart Infusion Broth (BHI; Biomérieux, Marci l'Etoile, France) was prepared for each bacterial strain, with an optical density of 0.5 McFarland (1.5×10^8 CFU/ml). The P. acnes broth was supplemented with 5% defibrinated sheep blood (Liofilchem, Roseto degli Abruzzi, Italy). After a concentration of 10^5 UFC/ml was obtained using appropriate dilutions, each suspension was inoculated in a 96-well microtitre plate containing a two-fold serial dilution of vitamin E acetate (VitE-Ac) and vitamin E phosphate. The controls were performed by inoculating bacterial suspensions in BHI alone. […] After incubation at adequate conditions, MBC was read as the lowest concentration capable of killing 99.9% of the initial inoculum.

S. epidermidis [2] = experiment: MIC and MBC, broth microdilution (Example 3); format: cell-based, Staphylococcus epidermidis; conditions: S. epidermidis strains
Source text: as §1, §2, §3

P. aeruginosa = experiment: MIC and MBC, broth microdilution (Example 3); format: cell-based, Pseudomonas aeruginosa; conditions: P. aeruginosa strains
Source text: as §1, §2, §3

S. aureus [3] = experiment: Anti-adhesion activity on coated titanium disks, CFU count (Example 3); format: cell-based, Staphylococcus aureus; conditions: 5 mg/cm^2 coating, 30, 60 and 120 minutes
Description: (§4) Sterile disks of sandblasted titanium with a diameter of 25 mm and a thickness of 5 mm (Adler Ortho, Cormano, Italy) were used as the substrate for the formation of biofilms. The disks were coated with sub-inhibitory concentrations of vitamin E acetate (5 mg/cm^2) or vitamin E phosphate (5 mg/cm^2). The concentrations were selected based on the MIC results. Uncoated disks were used as negative controls. The anti-adhesion activity of vitamin E was assessed against a representative strain for each species. An overnight bacteria culture was resuspended in Brain Heart Infusion Broth (BHI; Biomérieux) at a density of 1.0×10^7 CFU/ml for each strain, and 400 microliters of microbial suspension were inoculated on coated and uncoated disks. The test was performed in triplicate for each strain. After 30, 60 and 120 minutes of incubation, the disks were washed twice with a sterile saline solution to eliminate non-adherent bacteria. The disks were then immersed in 5 ml of a 0.1 w/v % dithiothreitol solution (DTT, Sigma-Aldrich, Milan, Italy) and mechanically stirred for 15 minutes at room temperature. Suitable dilutions of the fluids obtained were inoculated on Tryptic Soy Agar (TSA, Merck) and incubated at 37° C. in an aerobic atmosphere for 24 hours for the CFU count.

S. epidermidis [4] = experiment: as above; format: cell-based, Staphylococcus epidermidis; conditions: 5 mg/cm^2 coating, 30, 60 and 120 minutes
Description: as §4

[5] = kills 99.9% of the initial inoculum

**Q.** Which results are given for CC(=O)Oc1c(C)c(C)c2c(c1C)CCC(C)(CCC[C@H](C)CCC[C@H](C)CCCC(C)C)O2 (stereo partly drawn) [Vitamin E acetate, α-tocopherol acetate]?
**A.** reduction of microbial biofilm with respect to the control (Candida albicans; 2.5% VitE in HA carrier): 24%; reduction of microbial biofilm with respect to the control (Candida albicans; 5% VitE in HA carrier): 37%; MIC range (S. aureus [1]; 24 hours): >200 mg/mL; MBC range (S. aureus [1]; [5]): >200 mg/mL; MIC range (S. epidermidis [2]; 24 hours): >200 mg/mL; MBC range (S. epidermidis [2]; [5]): >200 mg/mL; MIC range (P. aeruginosa; 24 hours): >200 mg/mL; MBC range (P. aeruginosa; [5]): >200 mg/mL; decrease in adhesion (in words) (S. aureus [3]): significant decrease; decrease in adhesion (in words) (S. epidermidis [4]): significant decrease
